Legend:
GD8/6 cells = conditions: 0-18 mg/L (as HCl salt) in BAV-medium with 0.25% soy hydrolysate vs unsupplemented 0.25% or 0.4% soy hydrolysate
Method: Small scale experiments with GD8/6 cells in suspension culture were carried in Techne spinner flasks at 200 ml working volume in batch refeed mode at 37° C., without pH and pO2 control.
The activity of Factor VIII (FVIII) (cf. FIGS. 1 to 5 and 9) was measured by a chromogenic assay (Chromogenic, Sweden).
The cell specific productivity is defined as the specific amount of produced protein (U or μg) per number of cells per day (cf. FIGS. 7 and 9) or as the specific amount of produced protein (U) produced per amount of D-glucose consumed by the cells (cf. FIG. 8).

[1] = tested on: GD8/6 cells (CHO-cells stably expressing Factor VIII); experiment: Volumetric FVIII productivity of GD8/6 cells in chemostat culture (chromogenic FVIII assay); type: cell-based
Method: (§1) Cell cultures of recombinant mammalian cells (e.g. CHO-cells stably expressing Factor VIII=GD8/6-cells) were grown in suspension in a chemostat culture in 10 l bioreactors. The culture conditions of 37° C., oxygen saturation 20% and pH 7.0 to 7.1 were kept constant. The cultures were supplied with a constant feed of BAV-medium as defined in Example 1 additionally supplemented with soy hydrolysates in the range of […] and/or addition of putrescine.2HCl in the range of 0-1 mg/L (cf. FIG. 1-5).
The volumetric productivity is calculated from the amount of activity units or antigen titers yielded per liter reactor volume per day (U/L/d or mg/L/d) in the respective production systems.

[2] = tested on: GD8/6 cells (CHO-cells stably expressing Factor VIII)
Method: as §1
Cell counts from suspension cells or immobilized cells were determined either by counting with a CASY® cell counter as described by Schärfe et al., (Biotechnologie in LaborPraxis 10: 1096-1103 (1988)) or by citric acid extraction and fluorescent staining of the nuclei followed by counting with a NucleoCounter® (Chemometec, DK). The specific growth rate (μ) is calculated from the increase of the cell densities (X1) and/or the dilution rate (D) of the steady state of chemostat cultures of suspensions cells over a certain time interval (t): μ=D+In (Xt I X0)/t

Recombinant BHK cells = conditions: 0.25% (w/v) soy hydrolysate + 1.8 mg/L putrescine.2HCl vs 0.25% soy peptone alone; 3 days; EPO activity per glucose consumption
Method: Recombinant BHK cells were grown to confluence in 5% (v/v) fetal calf serum containing medium. The cells were washed with protein-free medium and incubated for 3 days in BAV medium supplemented with 0.25% (w/v) soy hydrolysate or 0.25% (w/v) soy hydrolysate+1.8 mg/L putrescine.2HCl (FIG. 8).

[3] = 0.25% (w/v) soy hydrolysate + 1 mg/L putrescine.2HCl
[4] = 0.25% (w/v) soy hydrolysate + 1 mg/L putrescine.2HCl vs 0.25% soy hydrolysate alone

NCCC[C@H](N)C(=O)O [ornithine]
cell specific productivity (FVIII), change (GD8/6 cells): significant increase

NCCCCN [putrescine]
variation of volumetric FVIII-productivity between soy hydrolysate lots [1, 3]: only minor variations
volumetric and cell specific FVIII-productivity, change [1, 4]: increases
volumetric productivity of FVIII, effect of addition ([1]; addition to BAV-medium with 0.25% (w/v) soy hydrolysate, due to increased cell specific FVIII productivity): over proportional increased
variation of specific growth rates between soy hydrolysate lots [2, 3]: only minor variations
specific growth rate, change [2, 4]: increases
increase in EPO productivity (Recombinant BHK cells): 16%
cell specific productivity (FVIII), change (GD8/6 cells): significant increase

NCCCNCCCCNCCCN [spermine]
cell specific productivity (FVIII), change (GD8/6 cells): significant increase

— patent US10655099B2, “Animal protein-free media for cultivation of cells” (Baxalta Incorporated, priority 2004, dated 2020)
